According to US10597388B2, “Pyridazinone herbicides” (FMC CORPORATION, priority 2014, dated 2020):

How the values were obtained:
Assay in all cases: Test D controlled growth environment herbicide test, pre- and postemergence
Format in all cases: in vivo
[1] = test system: pigweed (Amaranthus retroflexus)
Outline: (§1)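 Pre-emergence: seeds sown in silt loam soil were sprayed with compound in a non-phytotoxic solvent mix containing surfactant. Post-emergence: plants at 2 to 18 cm (1- to 4-leaf stage) in peat moss/vermiculite medium got the same formulation. Visual 0–100 rating versus controls after 14 to 21 d.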

[2] = test system: barley, winter (winter barley, Hordeum vulgare)
Outline: as §1

[3] = test system: galium (catchweed bedstraw, Galium aparine)
Outline: as §1

[4] = test system: field violet (Viola arvensis)
Outline: as §1

[5] = test system: bluegrass (annual bluegrass, Poa annua)
Outline: as §1

[6] = test system: windgrass (Apera spica-venti)
Outline: as §1

[7] = test system: lambsquarters (Chenopodium album)
Outline: as §1

kochia (Kochia scoparia) = test system: kochia (Kochia scoparia)
Outline: as §1

[8] = test system: chamomile (scentless chamomile, Matricaria inodora)
Outline: as §1

[9] = test system: buckwheat, wild (wild buckwheat, Polygonum convolvulus)
Outline: as §1

[10] = test system: barley, spring (spring barley, Hordeum vulgare)
Outline: as §1

[11] = test system: canarygrass (Phalaris minor)
Outline: as §1

[12] = test system: radish, wild (wild radish, Raphanus raphanistrum)
Outline: as §1

[13] = test system: field poppy (Papaver rhoeas)
Outline: as §1

[14] = Postemergence, 31 g ai/ha, scale 0 to 100 (0 no effect, 100 complete control)
[15] = Postemergence, 125 g ai/ha, visual rating on scale 0 (no effect) to 100 (complete control), 14 to 21 d
[16] = Postemergence, 250 g ai/ha, scale 0 to 100 (0 no effect, 100 complete control)
[17] = Preemergence, 125 g ai/ha, scale 0 to 100 (0 no effect, 100 complete control)
[18] = Preemergence, 250 g ai/ha, scale 0 to 100, 0 no effect, 100 complete control
[19] = postemergence, 62 g ai/ha, scale 0 to 100, 0 no effect, 100 complete control
[20] = Preemergence, 62 g ai/ha, scale 0 to 100 (0 no effect, 100 complete control)

How did the “Pigweed plant response rating” value [1, 14] turn out when Cc1nn(C)c(=O)c(-c2cccc3ccc(Br)cc23)c1O [Compound 126] was run?
The value was 98.

And the “Plant response rating, Pigweed” value [1, 15]?
Its value is 98.

What about the “Plant response rating, Pigweed” value [1, 16] of the same compound?
The value was 98.

What about the “Plant response rating (scale of 0 to 100), Pigweed” value ([1]; Preemergence, 31 g ai/ha) of the same compound?
The value was 98.

And the “Plant response rating (scale of 0 to 100), Pigweed” value ([1]; Preemergence, 62 g ai/ha)?
The value was 100.

And the “Plant response rating, Pigweed” value [1, 17]?
The value was 100.

And the “Plant response rating, Pigweed” value [1, 18]?
The value was 100.

And the “Plant response rating, Pigweed” value [1, 19]?
The value was 100.

What about the “Barley, Winter plant response rating” value [2, 14] of the same compound?
The value was 0.

What about the “Plant response rating, Barley, Winter” value [2, 15] of the same compound?
Its value is 0.

What about the “Plant response rating, Barley, Winter” value [2, 16] of the same compound?
The value was 0.

What about the “Plant response rating (scale of 0 to 100), Barley, Winter” value ([2]; Preemergence, 31 g ai/ha) of the same compound?
The value was 0.

And the “Plant response rating, Barley, Winter” value [2, 20]?
The value was 0.

And the “Plant response rating, Barley, Winter” value [2, 17]?
The value was 0.

And the “Plant response rating, Barley, Winter” value [2, 18]?
Its value is 5.

And the “Plant response rating, Barley, Winter” value [2, 19]?
Its value is 5.

What about the “Galium plant response rating” value [3, 14] of the same compound?
The value was 90.

And the “Plant response rating, Galium” value [3, 15]?
Its value is 100.

And the “Plant response rating, Galium” value [3, 16]?
Its value is 100.

What about the “Plant response rating (scale of 0 to 100), Galium” value ([3]; Preemergence, 31 g ai/ha) of the same compound?
Its value is 50.

What about the “Plant response rating (scale of 0 to 100), Galium” value ([3]; Preemergence, 62 g ai/ha) of the same compound?
The value was 70.

And the “Plant response rating, Galium” value [3, 17]?
The value was 85.

What about the “Plant response rating, Galium” value [3, 18] of the same compound?
The value was 98.

And the “Plant response rating, Galium” value [3, 19]?
The value was 100.

What about the “Field Violet plant response rating” value [4, 14] of the same compound?
The value was 85.

And the “Plant response rating, Field Violet” value [4, 15]?
The value was 90.

And the “Plant response rating, Field Violet” value [4, 16]?
Its value is 100.

What about the “Plant response rating (scale of 0 to 100), Field Violet” value ([4]; Preemergence, 31 g ai/ha) of the same compound?
Its value is 85.

What about the “Plant response rating (scale of 0 to 100), Field Violet” value ([4]; Preemergence, 62 g ai/ha) of the same compound?
The value was 85.

What about the “Plant response rating, Field Violet” value [4, 17] of the same compound?
The value was 100.

What about the “Plant response rating, Field Violet” value [4, 18] of the same compound?
The value was 100.

And the “Plant response rating, Field Violet” value [4, 19]?
The value was 85.

What about the “Bluegrass plant response rating” value [5, 14] of the same compound?
Its value is 0.

And the “Plant response rating, Bluegrass” value [5, 15]?
Its value is 15.

And the “Plant response rating, Bluegrass” value [5, 16]?
Its value is 15.

And the “Plant response rating (scale of 0 to 100), Bluegrass” value ([5]; Preemergence, 31 g ai/ha)?
Its value is 5.

And the “Plant response rating, Bluegrass” value [5, 20]?
The value was 5.

What about the “Plant response rating, Bluegrass” value [5, 17] of the same compound?
The value was 30.

And the “Plant response rating, Bluegrass” value [5, 18]?
Its value is 40.

And the “Plant response rating, Bluegrass” value [5, 19]?
The value was 10.

And the “Windgrass plant response rating” value [6, 14]?
The value was 0.

What about the “Plant response rating, Windgrass” value [6, 15] of the same compound?
The value was 30.

And the “Plant response rating, Windgrass” value [6, 16]?
Its value is 55.

And the “Plant response rating (scale of 0 to 100), Windgrass” value ([6]; Preemergence, 31 g ai/ha)?
Its value is 25.

And the “Plant response rating (scale of 0 to 100), Windgrass” value ([6]; Preemergence, 62 g ai/ha)?
The value was 35.

And the “Plant response rating, Windgrass” value [6, 17]?
The value was 75.

And the “Plant response rating, Windgrass” value [6, 18]?
Its value is 85.

What about the “Plant response rating, Windgrass” value [6, 19] of the same compound?
Its value is 20.

And the “Lambsquarters plant response rating” value [7, 14]?
The value was 90.

And the “Plant response rating, Lambsquarters” value [7, 15]?
Its value is 100.

And the “Plant response rating, Lambsquarters” value [7, 16]?
Its value is 100.

And the “Plant response rating (scale of 0 to 100), Lambsquarters” value ([7]; Preemergence, 31 g ai/ha)?
Its value is 100.

What about the “Plant response rating (scale of 0 to 100), Lambsquarters” value ([7]; Preemergence, 62 g ai/ha) of the same compound?
Its value is 100.

And the “Plant response rating, Lambsquarters” value [7, 17]?
Its value is 75.

What about the “Plant response rating, Lambsquarters” value [7, 18] of the same compound?
Its value is 100.

What about the “Plant response rating, Lambsquarters” value [7, 19] of the same compound?
The value was 98.

And the “Kochia plant response rating” value (kochia (Kochia scoparia); [14])?
The value was 75.

What about the “Plant response rating, Kochia” value (kochia (Kochia scoparia); [15]) of the same compound?
Its value is 95.

And the “Plant response rating, Kochia” value (kochia (Kochia scoparia); [16])?
The value was 100.

What about the “Plant response rating (scale of 0 to 100), Kochia” value (kochia (Kochia scoparia); Preemergence, 31 g ai/ha) of the same compound?
Its value is 10.

What about the “Plant response rating (scale of 0 to 100), Kochia” value (kochia (Kochia scoparia); Preemergence, 62 g ai/ha) of the same compound?
The value was 20.

What about the “Plant response rating, Kochia” value (kochia (Kochia scoparia); [17]) of the same compound?
Its value is 75.

What about the “Plant response rating, Kochia” value (kochia (Kochia scoparia); [18]) of the same compound?
Its value is 95.

What about the “Plant response rating, Kochia” value (kochia (Kochia scoparia); [19]) of the same compound?
Its value is 80.

What about the “Chamomile plant response rating” value [8, 14] of the same compound?
Its value is 70.

And the “Plant response rating, Chamomile” value [8, 15]?
Its value is 98.

And the “Plant response rating, Chamomile” value [8, 16]?
Its value is 100.

And the “Plant response rating (scale of 0 to 100), Chamomile” value ([8]; Preemergence, 31 g ai/ha)?
Its value is 85.

And the “Plant response rating (scale of 0 to 100), Chamomile” value ([8]; Preemergence, 62 g ai/ha)?
The value was 100.

What about the “Plant response rating, Chamomile” value [8, 17] of the same compound?
Its value is 100.

What about the “Plant response rating, Chamomile” value [8, 18] of the same compound?
The value was 100.

And the “Plant response rating, Chamomile” value [8, 19]?
Its value is 95.

What about the “Buckwheat, Wild plant response rating” value [9, 14] of the same compound?
The value was 70.

What about the “Plant response rating, Buckwheat, Wild” value [9, 15] of the same compound?
Its value is 100.

And the “Plant response rating, Buckwheat, Wild” value [9, 16]?
The value was 100.

And the “Plant response rating (scale of 0 to 100), Buckwheat, Wild” value ([9]; Preemergence, 31 g ai/ha)?
The value was 0.

And the “Plant response rating, Buckwheat, Wild” value [9, 20]?
The value was 0.

What about the “Plant response rating, Buckwheat, Wild” value [9, 17] of the same compound?
The value was 10.

What about the “Plant response rating, Buckwheat, Wild” value [9, 18] of the same compound?
Its value is 25.

What about the “Plant response rating, Buckwheat, Wild” value [9, 19] of the same compound?
Its value is 100.

What about the “Barley, Spring plant response rating” value [10, 14] of the same compound?
Its value is 0.

What about the “Plant response rating, Barley, Spring” value [10, 15] of the same compound?
The value was 10.

What about the “Plant response rating, Barley, Spring” value [10, 16] of the same compound?
Its value is 10.

What about the “Plant response rating (scale of 0 to 100), Barley, Spring” value ([10]; Preemergence, 31 g ai/ha) of the same compound?
The value was 0.

And the “Plant response rating, Barley, Spring” value [10, 20]?
Its value is 0.

And the “Plant response rating, Barley, Spring” value [10, 17]?
The value was 0.

What about the “Plant response rating, Barley, Spring” value [10, 18] of the same compound?
Its value is 0.

And the “Plant response rating, Barley, Spring” value [10, 19]?
The value was 0.

What about the “Canarygrass plant response rating” value [11, 14] of the same compound?
Its value is 20.

What about the “Plant response rating, Canarygrass” value [11, 15] of the same compound?
The value was 45.

And the “Plant response rating, Canarygrass” value [11, 16]?
The value was 75.

And the “Plant response rating (scale of 0 to 100), Canarygrass” value ([11]; Preemergence, 31 g ai/ha)?
The value was 15.

And the “Plant response rating (scale of 0 to 100), Canarygrass” value ([11]; Preemergence, 62 g ai/ha)?
Its value is 50.

What about the “Plant response rating, Canarygrass” value [11, 17] of the same compound?
The value was 80.

And the “Plant response rating, Canarygrass” value [11, 18]?
The value was 90.

And the “Plant response rating, Canarygrass” value [11, 19]?
Its value is 35.

What about the “Radish, Wild plant response rating” value [12, 14] of the same compound?
Its value is 40.

What about the “Plant response rating, Radish, Wild” value [12, 15] of the same compound?
The value was 75.

What about the “Plant response rating, Radish, Wild” value [12, 16] of the same compound?
Its value is 95.

What about the “Plant response rating (scale of 0 to 100), Radish, Wild” value ([12]; Preemergence, 31 g ai/ha) of the same compound?
The value was 5.

What about the “Plant response rating (scale of 0 to 100), Radish, Wild” value ([12]; Preemergence, 62 g ai/ha) of the same compound?
The value was 15.

What about the “Plant response rating, Radish, Wild” value [12, 17] of the same compound?
The value was 75.

And the “Plant response rating, Radish, Wild” value [12, 18]?
The value was 90.

And the “Plant response rating, Radish, Wild” value [12, 19]?
The value was 70.

And the “Field Poppy plant response rating” value [13, 14]?
Its value is 25.

And the “Plant response rating, Field Poppy” value [13, 15]?
The value was 75.

And the “Plant response rating, Field Poppy” value [13, 16]?
The value was 85.

What about the “Plant response rating (scale of 0 to 100), Field Poppy” value ([13]; Preemergence, 31 g ai/ha) of the same compound?
Its value is 30.

And the “Plant response rating (scale of 0 to 100), Field Poppy” value ([13]; Preemergence, 62 g ai/ha)?
Its value is 45.

What about the “Plant response rating, Field Poppy” value [13, 17] of the same compound?
The value was 90.

And the “Plant response rating, Field Poppy” value [13, 18]?
Its value is 95.

And the “Plant response rating, Field Poppy” value [13, 19]?
The value was 55.
